Laboratory results: US20180000136A1, “BIOLOGICAL INORGANIC COMPOUND COMPLEX HAVING REDUCED OXYGEN AND HIGH REDUCING ABILITY” (priority 2011, published 2018)

Tests used:
LPO-H2O2 reaction = LPO-H2O2 reaction (Bos taurus, UniProt P80025); test: Compound II formation from the peroxidase-H2O2 reaction (OD 430 nm); type: biochemical; settings: KI at 1 μM
Source text: Compound II, however, is relatively stable and can be measured at OD of 430 nm. The compound II level is well maintained after mixing LPO and H2O2 (Referring to FIG. 28). […] Since the compound II is derived from the compound I, the inhibition of compound I is also understandable.

[1] = Degradation of H2O2 in a cell-free system (Amplex red); type: biochemical; settings: 20 μM H2O2, 30 min at 37° C.
Protocol: Then, Amplex red (Invitrogen) is added and incubated for 30 min in a dark room. The absorbance at 560 nm is measured by a microplate reader (Molecular Devices, Sunnyvale, Calif.).

[2] = medication of Graves' disease; Non-patent documents 1 and 2; cited from earlier work

| compound II formation (LPO-H2O2 reaction) | SMILES | degradation of H2O2 [1] | side-effects [2] |
| --- | --- | --- | --- |
| partially inhibits | [I-].[K+] [KI] |  |  |
|  | Cn1cc[nH]c1=S [MMI, methimazole] | can degrade H2O2 although higher concentration of MMI is required | an allergic reaction, an increase of a variety of enzyme levels in liver, a joint pain and an agranulocytosis in case of a severe condition |
|  | CCCc1cc(=O)[nH]c(=S)[nH]1 [PTU, propylthiouracil] |  | severe liver damage |
